In patent US10350199B2, “3-(1h-pyrrolo[2,3-b]pyridin-2-yl)-1h-indazoles and therapeutic uses thereof” (Samumed, LLC, priority 2015, dated 2019):

Columns and labels:
Format in all cases: cell-based
[1] = test system: Wnt activity (Sp5-Luc reporter, SW480 colon carcinoma cells); assay: Wnt activity screening assay, Sp5-Luc reporter gene in SW480 cells; conditions: Homo sapiens; for inhibition at 10 µM: SW480, read-out: percent inhibition at 10 μM; for EC50: Sp5-Luc reporter, SW480 cells, overnight incubation
In short: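 SW480 cells stably transduced with lentiviral Sp5 promoter (eight TCF/LEF sites)-firefly luciferase, plated at 4,000 cells/well in 1% FBS medium and incubated overnight at 37° C. Luminescence read after BrightGlo addition, normalized to DMSO-only cells; EC50 from four-parameter variable-slope nonlinear regression.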

[2] = test system: SW480 colon cancer cells; assay: Cell viability assay (CellTiter-Blue), SW480 cells, four days; conditions: Homo sapiens; for EC50: 96 h, SW480 cell viability, four days, CellTiter-Blue; for inhibition at 10 µM: SW480, read-out: percent inhibition at 10 μM
In short: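 Fluorescence from resazurin reduced to resorufin by metabolically active cells was the read-out, taken after ~3 h with CellTiter-Blue.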

[3] = test system: primary human fibroblasts derived from IPF patients (LL29 cells) treated with TGF-β1; assay: Inhibition of the fibrotic process: αSMA staining in TGF-β1 treated LL29 fibroblasts; conditions: Fibroblast; for EC50: 96 h, LL29 cells, TGF-β1 20 ng/mL, 4 days, % αSMA positive cells
In short: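 IPF-patient-derived LL29 lung fibroblasts in F12 with 1% FBS, stimulated with TGF-β1 alongside compound; TGF-β1 plus DMSO wells served as controls. After 4 days, nuclei stained with 1 μM SYTOX green for 30 min at room temperature, alongside αSMA staining.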

[4] = test system: primary human mesenchymal stem cells (hMSCs); assay: Induction of chondrogenesis in human mesenchymal stem cells (nodule area, Rhodamine B/Nile Red); conditions: hMSC chondrogenesis, relative to TGF-β3 (10 ng/mL) positive control, read-out: Max. Activity as % TGF-β3 activity
In short: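 Primary hMSCs at passage 3-6 were treated with compound; nodule area per well was normalized to the mean of 3 DMSO wells, averaged over 2-3 replicates, and the concentration giving 50% chondrogenesis relative to TGF-β3 control, plus maximum activity and its dose, was derived.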

[5] = test system: IL-6 (THP-1 human monocyte cell line); assay: IL-6 inhibition in LPS-stimulated THP-1 cells (HTRF); conditions: for EC50: IL-6 inhibition, LPS-stimulated THP-1 cells, HTRF; for inhibition at 10 µM: THP-1, read-out: percentage in parentheses beside EC50 >10 (IL-6 inhibition)
In short: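 THP-1 cells kept 24 h in 1% FBS medium, treated 2 h at 37 °C, then stimulated with 500 ng/mL LPS for another 22 h. IL-6 measured by HTRF as the 665/620 nm ratio; EC50 from a four-parameter fit normalized to DMSO controls.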

Row | EC50 [1] [µM] | EC50 [2] [µM] | EC50 [5] [µM] | SMILES | inhibition at 10 µM [1] [%] | inhibition at 10 µM [2] [%] | EC50 [3] [µM] | inhibition at 10 µM ([3]; read-out: percent inhibition at 10 μM) [%] | Emax [4] [%] | inhibition at 10 µM [5] [%]
1 | > 10 | > 10 | > 10 | CN(C)Cc1cncc(-c2cc(F)c3[nH]nc(-c4cc5c(-c6cccc(F)c6)ccnc5[nH]4)c3c2)c1 [Compound 992, 1-(5-(7-Fluoro-3-(4-(3-fluorophenyl)-1H-pyrrolo[2,3-b]pyridin-2-yl)-1H-indazol-5-yl)pyridin-3-yl)-N,N-dimethylmethanamine] | 17 | 3.6 | > 10 | 5.2 | 35 | 34.2
2 | > 10 | 2.4 | 0.852 | CN(C)Cc1cncc(-c2cc3c(-c4cc5c(-c6cccc(F)c6)ccnc5[nH]4)n[nH]c3cc2F)c1 [Compound 993, 1-(5-(6-Fluoro-3-(4-(3-fluorophenyl)-1H-pyrrolo[2,3-b]pyridin-2-yl)-1H-indazol-5-yl)pyridin-3-yl)-N,N-dimethylmethanamine] | – | – | 1.63 | – | 28 | –
3 | > 10 | > 10 | > 10 | CN(C)Cc1cncc(-c2ccc3[nH]nc(-c4cc5c(-c6cccc(F)c6)ccnc5[nH]4)c3c2F)c1 [Compound 994, 1-(5-(4-Fluoro-3-(4-(3-fluorophenyl)-1H-pyrrolo[2,3-b]pyridin-2-yl)-1H-indazol-5-yl)pyridin-3-yl)-N,N-dimethylmethanamine] | 20.8 | 34.7 | 4.9 | – | 21 | 36.6
